In BindingDB's records for PubMed 1356154 (Dupont Pharmaceuticals, 1992):
“And” between values parts separate entries of the source, which are not always exact repeats. Equal entries are not always repeated.

Target: D(2) dopamine receptor (Rattus norvegicus, UniProt P61169)
Sequence (P61169 whole entry): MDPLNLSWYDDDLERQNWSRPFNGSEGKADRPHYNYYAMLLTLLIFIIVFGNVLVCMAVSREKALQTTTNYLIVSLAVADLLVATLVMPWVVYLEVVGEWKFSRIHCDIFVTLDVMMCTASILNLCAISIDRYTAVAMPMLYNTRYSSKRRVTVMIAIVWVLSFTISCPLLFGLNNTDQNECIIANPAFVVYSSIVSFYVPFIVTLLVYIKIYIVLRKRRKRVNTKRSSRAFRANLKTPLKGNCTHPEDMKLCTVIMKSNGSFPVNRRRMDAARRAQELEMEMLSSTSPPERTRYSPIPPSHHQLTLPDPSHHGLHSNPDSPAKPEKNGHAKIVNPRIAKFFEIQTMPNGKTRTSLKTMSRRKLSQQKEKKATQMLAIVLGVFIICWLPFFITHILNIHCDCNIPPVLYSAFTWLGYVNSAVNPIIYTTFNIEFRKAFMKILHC

| SMILES | Ki |
| --- | --- |
| NC1CCc2cc(O)c(O)cc2C1 (centres undefined) | 6.1 nM and 24 nM |
| O=C(O)c1ccccc1C(=O)Nc1cccc2ccccc12 [NPA,(+)] | 4.8 nM |
| CC(C)C[C@H]1C(=O)N2CCC[C@H]2[C@]2(O)O[C@](NC(=O)[C@@H]3C=C4c5cccc6[nH]c(Br)c(c56)C[C@H]4N(C)C3)(C(C)C)C(=O)N12 [Bromocriptine+ (GTP+)] | 83 nM and 54 nM |
| CN(C)CCCSc1ccccc1NC(=O)/C=C/c1ccccc1 [CINANSERIN] | > 10000 nM |
